Measurements as given in patent US20060019995A1, “2,3-dihydro-4(1H)-pyridone derivatives , method for production thereof and pharmaceutical composition comprising the same” (priority 2002, published 2006).

Key:
[1] = tested on: social recognition (olfactory memory); experiment: Social recognition in the Wistar rat; assay type: in vivo; details: intraperitoneal route, 3 mg/kg, second encounter after 2 hours
Source text: Initially described in 1982 by THOR and HOLLOWAY (J. Comp. Physiol., 1982, 96, 1000-1006), the social recognition test has subsequently been proposed by various authors (DANTZER et al., Psychopharmacology, 1987, 91, 363-368; PER10 et al., Psycho-pharmacology, 1989, 97, 262-268) for studying the mnemocognitive effects of new compounds. The test is based on the natural expression of the olfactory memory of the rat and its natural tendency to forget and allows evaluation of memorisation, by recognition of a young congeneric animal, by an adult rat. A young rat (21 days), taken at random, is placed for 5 minutes in the cage housing an adult rat. With the aid of a video device, the experimenter observes the social recognition behaviour of the adult rat and measures its overall duration. The young rat is then removed from the adult rat's cage and is placed in its own cage until the second introduction. The adult rat is then given the compound under test (intraperitoneal route) and, after 2 hours, is again brought into the presence (5 minutes) of the young rat. The social recognition behaviour is then observed again and its duration measured.

[2] = tested on: PBQ-induced abdominal cramps; experiment: Abdominal contractions induced by phenyl-p-benzoquinone (PBQ) in the NMRI mouse; assay type: in vivo; details: IP, 20 mg/kg, PBQ at t=30 min, cramps counted t=35 to 45 min
Experimental: Intraperitoneal administration of an alcoholic solution of PBQ causes abdominal cramps in the mouse (SIEGMUND et al., Proc. Soc. Exp. Biol., 1957, 95, 729-731). The cramps are characterised by repeated contractions of the abdominal musculature, accompanied by extension of the hind limbs. Most analgesics antagonise these abdominal cramps (COLLIER et al., Brit. J. Pharmacol. Chem., 1968, 32, 295-310). At t=0 min., the animals are weighed and the compound being studied is administered by the IP route. A group of control animals is given the solvent used for the compound. At t=30 min., an alcoholic solution of PBQ (0.2%) is administered by the IP route in a volume of 0.25 ml/mouse. Immediately after administration of the PBQ, the animals are placed in cylinders of plexiglass (L=19.5 cm; I.D.=5 cm). From t=35 min. to t=45 min., the animals' reaction is observed and the experimenter notes the total number of abdominal cramps per animal.

Row | Structure (SMILES) | T2 − T1 (s) ± sem, difference between recognition times of the 2 encounters [1] | Inhibition (%) of the number of abdominal cramps measured in the control animals [2]
1 | CC1CC(=O)C=C(c2cccs2)N1C(=O)OC(C)(C)C (stereo not shown) [Example 1, Tert-butyl 2-methyl-4-oxo-6-(2-thienyl)-3,4-dihydro-1(2H)-pyridinecarboxylate] | -17.4 ± 2.5 s | 
2 | CC1CC(=O)C=C(c2cccs2)N1 (stereo not shown) [Example 2, 2-Methyl-6-(2-thienyl)-2,3-dihydro-4(1H)-pyridone] |  | 48%
3 | CC1CC(=O)C=C(c2ccccc2)N1C(=O)OC(C)(C)C (stereo not shown) [Example 3, Tert-butyl 2-methyl-4-oxo-6-phenyl-3,4-dihydro-1(2H)-pyridine-carboxylate] | -25.3 ± 7.1 s | 59%
4 | CC1CC(=O)C=C(c2cccc(Cl)c2)N1 (stereo not shown) [Example 6, 6-(3-Chlorophenyl)-2-methyl-2,3-dihydro-4(1H)-pyridone] | -21.4 ± 5.1 s | 48%
5 | CC1CC(=O)C=C(c2ccc(Cl)nc2)N1 (stereo not shown) [Example 8, 6-(6-Chloro-3-pyridyl)-2-methyl-2,3-dihydro-4(1H)-pyridone] | -17.2 ± 4.6 s | 
